This experiment has as its target human aldose reductase (hALR2) (Homo sapiens, UniProt P15121). Kind of experiment: inhibition of human aldose reductase (hALR2) activity, methods similar to Butera et al. It counts as biochemical. Conditions: concentration to inhibit activity by 50%, read-out: hAR-#1 (aldose). As for the experimental part:
Representative compounds of the invention are tested for their potency, selectivity and efficacy as inhibitors of human aldose reductase. […] Using this assay, the concentrations required to inhibit human aldose reductase (hALR2) activity by 50% (IC50) are determined.

The structures appear in SMILES notation. Counter-ions that a name gives are not always drawn.

For the compound `Cc1ccc2c(Cc3nc4c(F)c(F)cc(F)c4s3)cn(CC(=O)O)c2n1` [Example 2, [6-methyl-3-(4,5,7-trifluoro-benzothiazol-2-ylmethyl)-pyrrolo[2,3-b]pyridin-1-yl]-acetic acid], the IC50 turned out to be 8 nM. Regarding `O=C(O)Cc1cncc(Cc2nc3c(F)c(F)cc(F)c3s2)c1` [Example 8, 5-(4,5,7-trifluoro-benzothiazol-2-ylmethyl)-pyridin-3-yl-acetic acid hydrochloride], the IC50 stood at 8 nM.

Take `Cc1nc(C)c(Cc2nc3c(F)c(F)cc(F)c3s2)c(C)c1CC(=O)O` [Example 9, 2,4,6-trimethyl-5-(4,5,7-trifluoro-benzothiazol-2-ylmethyl)-pyridin-3-yl-acetic acid hydrochloride]: the IC50 stood at 6 nM. With `CCc1c(CC(=O)O)c(C)nc(C)c1Cc1nc2c(F)c(F)cc(F)c2s1` [Example 10, 2,6-dimethyl-4-ethyl-5-(4,5,7-trifluoro-benzothiazol-2-ylmethyl)-pyridin-3-yl-acetic acid hydrochloride], the IC50 worked out at 31 nM. To `CCc1ncc(Cc2nc3c(F)c(F)cc(F)c3s2)cc1CC(=O)O` [Example 11, 2-ethyl-5-(4,5,7-trifluoro-benzothiazol-2-ylmethyl)-pyridin-3-yl-acetic acid hydrochloride] belongs 6 nM; to `O=C(O)Cc1cc(Cc2nc3c(F)c(F)cc(F)c3s2)cnc1Cc1ccccc1` [Example 12, 2-benzyl-5-(4,5,7-trifluoro-benzothiazol-2-ylmethyl)-pyridin-3-yl-acetic acid hydrochloride], 5 nM; to `O=C(O)Cc1cc(Cc2nc3c(F)c(F)cc(F)c3s2)cnc1-c1ccccc1` [Example 13, 2-phenyl-5-(4,5,7-trifluoro-benzothiazol-2-ylmethyl)-pyridin-3-yl-acetic acid hydrochloride], 8 nM. The figure for `O=C(O)Cc1cnc(-c2ccccc2)c(Cc2nc3c(F)c(F)cc(F)c3s2)c1` [Example 15, 6-Phenyl-5-(4,5,7-trifluoro-benzothiazol-2-ylmethyl)-pyridin-3-yl-acetic acid hydrochloride] is 6 nM. The figure for `O=C(O)Cc1cnc(Cc2ccccc2)c(Cc2nc3c(F)c(F)cc(F)c3s2)c1` [Example 16, 6-Benzyl-5-(4,5,7-trifluoro-benzothiazol-2-ylmethyl)-pyridin-3-yl-acetic acid hydrochloride] is 7 nM; for `Cc1c(CC(=O)O)csc1Cc1nc2c(F)c(F)cc(F)c2s1` [Example 24, [4-methyl-5-(4,5,7-trifluoro-benzothiazol-2-ylmethyl)-thiophen-3-yl]-acetic acid] it is 31 nM; for `O=C(O)Cc1csc(Cc2nc3c(F)c(F)cc(F)c3s2)n1` [Example 25, [2-(4,5,7-Trifluoro-benzothiazol-2-ylmethyl)-thiazol-4-yl]-acetic acid] it is 130 nM.
